Key:
[1] = parameters: species or system mice; details: CD-1, mouse, in vivo, 2 years
[2] = Skin, eye and vaginal irritation studies; type: in vivo, rabbits
Text: The more severe dermal irritation seen in the rat is not predictive of human response.

With `CC(C)Cn1cnc2c(N)nc3ccccc3c21` [imiquimod, 1-(2-methylpropyl)-1H-imidazo[4,5-c]quinolin-4-amine] the “Carcinogenic effect, female mice” value ([1]; female) was “no evidence of a carcinogenic effect”, the “Liver tumours, male mice at the highest dose vs unexposed controls” value ([1]; male) was “Liver tumours were increased” and the Vaginal tract irritation ([2]; rat or rabbit, every other day for 10 days at 10 and 50 mg/dose) was “not irritating”. The Eye irritation ([2]; unformulated at 100 mg/eye or formulated up to 5 mg/eye) was “mild or no eye irritation” and the Skin irritation ([2]; unformulated at 500 mg or formulated up to 250 mg per site) was “non-irritating”.
